Assay results published in ChEMBL document CHEMBL1201862, “PubChem BioAssay data set” (2004).
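1) Cells in 96-well plates. 2) Compound, 48 h, 5 concentrations. 3) Linear interpolation between surrounding doses. 4) Unreached endpoint = highest concentration. Here, GI50 denotes the concentration required for 50% inhibition of growth.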 Calls of active or inactive are those of the source. Rule as the data show it: active = GI50 up to about 1.1 µM and inactive = higher.

Legend:
Assay in all cases: inhibition of tumour cell growth, NCI panel, 48 h
BT-549 = test system: BT-549
CCRF-CEM = test system: CCRF-CEM
DU-145 = test system: DU-145
EKVX = test system: EKVX
HCT-116 = test system: HCT-116
HL-60 = test system: HL-60
K562 = test system: K562
LOX IMVI = test system: LOX IMVI
M14 = test system: M14
MCF7 = test system: MCF7
MDA-N = test system: MDA-N
NCI-H460 = test system: NCI-H460
OVCAR-4 = test system: OVCAR-4
OVCAR-8 = test system: OVCAR-8
PC-3 = test system: PC-3
RPMI-8226 = test system: RPMI-8226
SN12C = test system: SN12C
SNB-19 = test system: SNB-19
TK-10 = test system: TK-10
UACC-62 = test system: UACC-62

## CCOC(=O)Nc1ccc(S(=O)(=O)Nn2cnnc2)cc1
BT-549
  GI50: 53.5 µM (inactive)
CCRF-CEM
  GI50: 23.9 µM (inactive)
DU-145
  GI50: > 100 µM (inactive)
EKVX
  GI50: > 100 µM (inactive)
HCT-116
  GI50: 30.1 µM (inactive)
HL-60
  GI50: 38 µM (inactive)
K562
  GI50: 27.2 µM (inactive)
LOX IMVI
  GI50: 69.3 µM (inactive)
M14
  GI50: 43 µM (inactive)
MCF7
  GI50: 41.2 µM (inactive)
MDA-N
  GI50: 22 µM (inactive)
NCI-H460
  GI50: 50 µM (inactive)
OVCAR-4
  GI50: 17.5 µM (inactive)
OVCAR-8
  GI50: > 100 µM (inactive)
PC-3
  GI50: 57.4 µM (inactive)
RPMI-8226
  GI50: 22.6 µM (inactive)
SN12C
  GI50: 53.1 µM (inactive)
SNB-19
  GI50: > 100 µM (inactive)
TK-10
  GI50: 85.5 µM (inactive)
UACC-62
  GI50: 33.8 µM (inactive)

## CC1=C(Br)C(=O)C(C)=C(Br)C1=O.Cc1c(O)c(Br)c(C)c(O)c1Br
BT-549
  GI50: 5.33 µM (inactive)
CCRF-CEM
  GI50: 0.216 µM (active)
DU-145
  GI50: 2.31 µM (inactive)
EKVX
  GI50: 1.85 µM (inactive)
HCT-116
  GI50: 1.69 µM (inactive)
HL-60
  GI50: 1.12 µM (active)
K562
  GI50: 1.41 µM (inactive)
LOX IMVI
  GI50: 1.87 µM (inactive)
M14
  GI50: 1.67 µM (inactive)
MCF7
  GI50: 1.96 µM (inactive)
MDA-N
  GI50: 1.81 µM (inactive)
NCI-H460
  GI50: 6.71 µM (inactive)
OVCAR-4
  GI50: 1.79 µM (inactive)
OVCAR-8
  GI50: 1.93 µM (inactive)
PC-3
  GI50: 2.05 µM (inactive)
RPMI-8226
  GI50: 2.27 µM (inactive)
SN12C
  GI50: 1.8 µM (inactive)
SNB-19
  GI50: 18.1 µM (inactive)
TK-10
  GI50: 1.64 µM (inactive)
UACC-62
  GI50: 5.55 µM (inactive)

## NC1C/C(=N\O)c2c(I)sc(I)c21 (stereo not given)
BT-549
  GI50: 15.9 µM (inactive)
CCRF-CEM
  GI50: 2.44 µM (inactive)
DU-145
  GI50: 17.4 µM (inactive)
EKVX
  GI50: 19 µM (inactive)
HCT-116
  GI50: 2.86 µM (inactive)
HL-60
  GI50: 4.23 µM (inactive)
K562
  GI50: 8.04 µM (inactive)
LOX IMVI
  GI50: 1.77 µM (inactive)
M14
  GI50: 14.5 µM (inactive)
MCF7
  GI50: 7.31 µM (inactive)
MDA-N
  GI50: 19.8 µM (inactive)
NCI-H460
  GI50: 21.3 µM (inactive)
OVCAR-4
  GI50: 22 µM (inactive)
OVCAR-8
  GI50: 13.4 µM (inactive)
PC-3
  GI50: 17.1 µM (inactive)
RPMI-8226
  GI50: 6.7 µM (inactive)
SN12C
  GI50: 20.7 µM (inactive)
SNB-19
  GI50: 17.2 µM (inactive)
TK-10
  GI50: 16.9 µM (inactive)
UACC-62
  GI50: 17.3 µM (inactive)

## NC(=O)[N+](=CC(=S)Nc1ccccc1Cl)C(N)=O
BT-549
  GI50: 86.9 µM (inactive)
CCRF-CEM
  GI50: > 100 µM (inactive)
DU-145
  GI50: > 100 µM (inactive)
EKVX
  GI50: > 100 µM (inactive)
HCT-116
  GI50: > 100 µM (inactive)
HL-60
  GI50: > 100 µM (inactive)
K562
  GI50: > 100 µM (inactive)
LOX IMVI
  GI50: > 100 µM (inactive)
M14
  GI50: > 100 µM (inactive)
MCF7
  GI50: > 100 µM (inactive)
MDA-N
  GI50: > 100 µM (inactive)
NCI-H460
  GI50: > 100 µM (inactive)
OVCAR-4
  GI50: > 100 µM (inactive)
OVCAR-8
  GI50: > 100 µM (inactive)
PC-3
  GI50: > 100 µM (inactive)
RPMI-8226
  GI50: > 100 µM (inactive)
SN12C
  GI50: > 100 µM (inactive)
SNB-19
  GI50: 71.4 µM (inactive)
TK-10
  GI50: > 100 µM (inactive)
UACC-62
  GI50: > 100 µM (inactive)

## C=C(C(=O)OC)N1C(=O)CC(C)C1=O (stereo not given)
BT-549
  GI50: 14.6 µM (inactive)
CCRF-CEM
  GI50: 1.7 µM (inactive)
DU-145
  GI50: 15.8 µM (inactive)
EKVX
  GI50: 14.7 µM (inactive)
HCT-116
  GI50: 6.67 µM (inactive)
HL-60
  GI50: 1.37 µM (inactive)
K562
  GI50: 2.87 µM (inactive)
LOX IMVI
  GI50: 7.14 µM (inactive)
M14
  GI50: 13.7 µM (inactive)
MCF7
  GI50: 10.3 µM (inactive)
MDA-N
  GI50: 14.2 µM (inactive)
NCI-H460
  GI50: 18.1 µM (inactive)
OVCAR-4
  GI50: 18.2 µM (inactive)
OVCAR-8
  GI50: 15.3 µM (inactive)
PC-3
  GI50: 16.1 µM (inactive)
RPMI-8226
  GI50: 4.91 µM (inactive)
SN12C
  GI50: 16.1 µM (inactive)
SNB-19
  GI50: 21.4 µM (inactive)
TK-10
  GI50: 6.79 µM (inactive)
UACC-62
  GI50: 15.2 µM (inactive)

## O=S(=O)(CC#CCS(=O)(=O)c1ccccc1)c1ccccc1
BT-549
  GI50: 3.13 µM (inactive)
CCRF-CEM
  GI50: 0.0982 µM (active)
DU-145
  GI50: 4.91 µM (inactive)
EKVX
  GI50: 5.09 µM (inactive)
HCT-116
  GI50: 1.01 µM (active)
HL-60
  GI50: 3.1 µM (inactive)
K562
  GI50: 1.58 µM (inactive)
LOX IMVI
  GI50: 1.51 µM (inactive)
M14
  GI50: 1.86 µM (inactive)
MCF7
  GI50: 1.99 µM (inactive)
MDA-N
  GI50: 1.77 µM (inactive)
NCI-H460
  GI50: 12.6 µM (inactive)
OVCAR-4
  GI50: 1.84 µM (inactive)
OVCAR-8
  GI50: 1.76 µM (inactive)
PC-3
  GI50: 7.45 µM (inactive)
RPMI-8226
  GI50: 1.23 µM (inactive)
SN12C
  GI50: 4.28 µM (inactive)
SNB-19
  GI50: 16.3 µM (inactive)
TK-10
  GI50: 2.72 µM (inactive)
UACC-62
  GI50: 3.55 µM (inactive)

## C[Si](C)(C)CNC(=O)OCc1ccccc1
BT-549
  GI50: 98.9 µM (inactive)
CCRF-CEM
  GI50: > 100 µM (inactive)
DU-145
  GI50: > 100 µM (inactive)
EKVX
  GI50: 76.7 µM (inactive)
HCT-116
  GI50: > 100 µM (inactive)
HL-60
  GI50: 57.4 µM (inactive)
K562
  GI50: 48.9 µM (inactive)
LOX IMVI
  GI50: > 100 µM (inactive)
M14
  GI50: > 100 µM (inactive)
MCF7
  GI50: > 100 µM (inactive)
MDA-N
  GI50: > 100 µM (inactive)
NCI-H460
  GI50: > 100 µM (inactive)
OVCAR-4
  GI50: 87.1 µM (inactive)
OVCAR-8
  GI50: > 100 µM (inactive)
PC-3
  GI50: > 100 µM (inactive)
RPMI-8226
  GI50: 32.2 µM (inactive)
SN12C
  GI50: > 100 µM (inactive)
SNB-19
  GI50: > 100 µM (inactive)
TK-10
  GI50: > 100 µM (inactive)
UACC-62
  GI50: > 100 µM (inactive)

## CC[C@@]1(O)C(=O)OCc2c1cc1n(c2=O)Cc2c-1nc1ccccc1c2/C=N\NC(=O)C(N)CCSC (stereo not given in full)
BT-549
  GI50: 0.102 µM (active)
CCRF-CEM
  GI50: < 0.01 µM (active)
DU-145
  GI50: 0.0175 µM (active)
EKVX
  GI50: 0.668 µM (active)
HCT-116
  GI50: 0.0253 µM (active)
HL-60
  GI50: < 0.01 µM (active)
K562
  GI50: 0.0109 µM (active)
LOX IMVI
  GI50: < 0.01 µM (active)
M14
  GI50: < 0.0121 µM (active)
MCF7
  GI50: < 0.01 µM (active)
MDA-N
  GI50: 0.224 µM (active)
NCI-H460
  GI50: < 0.01 µM (active)
OVCAR-4
  GI50: 0.299 µM (active)
OVCAR-8
  GI50: < 0.0119 µM (active)
PC-3
  GI50: 0.13 µM (active)
RPMI-8226
  GI50: < 0.0282 µM (active)
SN12C
  GI50: < 0.01 µM (active)
SNB-19
  GI50: < 0.01 µM (active)
TK-10
  GI50: 6.4 µM (inactive)
UACC-62
  GI50: < 0.01 µM (active)

## CCCCCCCCCCCCCCCCCCNc1ccn(C2OC(COP(=O)(O)OCC3OC(n4ccc(NC(=O)CCCCCCCCCCCCCCCCC)nc4=O)C(OC(C)=O)C3OC(C)=O)C(OC(C)=O)C2OC(C)=O)c(=O)n1 (stereo not given)
BT-549
  GI50: > 100 µM (inactive)
CCRF-CEM
  GI50: > 100 µM (inactive)
DU-145
  GI50: > 100 µM (inactive)
EKVX
  GI50: > 100 µM (inactive)
HCT-116
  GI50: > 100 µM (inactive)
HL-60
  GI50: > 100 µM (inactive)
K562
  GI50: 0.0551 µM (active)
LOX IMVI
  GI50: > 100 µM (inactive)
M14
  GI50: > 100 µM (inactive)
MCF7
  GI50: > 100 µM (inactive)
MDA-N
  GI50: > 100 µM (inactive)
NCI-H460
  GI50: > 100 µM (inactive)
OVCAR-4
  GI50: > 100 µM (inactive)
OVCAR-8
  GI50: > 100 µM (inactive)
PC-3
  GI50: > 100 µM (inactive)
RPMI-8226
  GI50: > 100 µM (inactive)
SN12C
  GI50: > 100 µM (inactive)
SNB-19
  GI50: > 100 µM (inactive)
TK-10
  GI50: > 100 µM (inactive)
UACC-62
  GI50: > 100 µM (inactive)

## CCC/C(Cl)=N\OC(=O)Nc1ccc(F)cc1
BT-549
  GI50: 15.1 µM (inactive)
CCRF-CEM
  GI50: 1.63 µM (inactive)
DU-145
  GI50: 17 µM (inactive)
EKVX
  GI50: 17.3 µM (inactive)
HCT-116
  GI50: 16.7 µM (inactive)
HL-60
  GI50: 1.87 µM (inactive)
K562
  GI50: 1.89 µM (inactive)
LOX IMVI
  GI50: 4.15 µM (inactive)
M14
  GI50: 14.6 µM (inactive)
MCF7
  GI50: 20 µM (inactive)
MDA-N
  GI50: 16.3 µM (inactive)
NCI-H460
  GI50: > 100 µM (inactive)
OVCAR-4
  GI50: 16.9 µM (inactive)
OVCAR-8
  GI50: 25.4 µM (inactive)
PC-3
  GI50: 17.3 µM (inactive)
RPMI-8226
  GI50: 6.01 µM (inactive)
SN12C
  GI50: 16.7 µM (inactive)
SNB-19
  GI50: 19.2 µM (inactive)
TK-10
  GI50: 15.7 µM (inactive)
UACC-62
  GI50: 13.6 µM (inactive)
